Data published in ChEMBL document CHEMBL1201862, “PubChem BioAssay data set” (2004).
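Grown in 96-well plates, cells were treated for 48 hours with each compound at five concentrations. Insufficient inhibition: endpoint recorded as highest concentration tested. The concentration for 50% growth inhibition is given as GI50.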 The source made the active and inactive calls. Rule as the data show it: active = GI50 up to about 1.1 µM and inactive = higher.

What was measured:
Test in all cases: DTP human tumour cell line panel, 48 h
[1] = test system: HCT-15
[2] = test system: UO-31
[3] = test system: UACC-257
[4] = test system: OVCAR-4
[5] = test system: MCF7
[6] = test system: SNB-75
[7] = test system: DU-145
[8] = test system: HOP-62
[9] = test system: NCI/ADR-RES
[10] = test system: CCRF-CEM
[11] = test system: A498
[12] = test system: K562
[13] = test system: HT-29
[14] = test system: HOP-92
[15] = test system: OVCAR-8
[16] = test system: Hs-578T
[17] = test system: Malme-3M
[18] = test system: 786-0
[19] = test system: COLO 205
[20] = test system: HL-60
[21] = test system: HCT-116
[22] = test system: SF-539
[23] = test system: BT-549
[24] = test system: SK-MEL-28
[25] = test system: TK-10
[26] = test system: SK-MEL-5
[27] = test system: NCI-H23
[28] = test system: MDA-MB-435
[29] = test system: CAKI-1
[30] = test system: T47D
[31] = test system: A549
[32] = test system: MOLT-4
[33] = test system: EKVX
[34] = test system: KM12
[35] = test system: MDA-N
[36] = test system: ACHN
[37] = test system: PC-3
[38] = test system: U-251
[39] = test system: NCI-H460
[40] = test system: RXF 393
[41] = test system: SNB-19
[42] = test system: OVCAR-3
[43] = test system: LOX IMVI
[44] = test system: IGROV-1
[45] = test system: SW-620
[46] = test system: SF-268
[47] = test system: SK-MEL-2
[48] = test system: MDA-MB-231
[49] = test system: UACC-62
[50] = test system: OVCAR-5
[51] = test system: SK-OV-3
[52] = test system: SR
[53] = test system: NCI-H522
[54] = test system: SF-295
[55] = test system: M14
[56] = test system: SN12C
[57] = test system: HCC 2998
[58] = test system: NCI-H226
[59] = test system: RPMI-8226

In the case of COC(=O)C1=C(C(=O)OC)C2(/N=C(\Nc3ccccc3)c3ccccc3)N(c3ccc(OC)cc3)CC(c3ccccc3)N2O1 (centres undefined), the GI50 [1] is reported as > 100 µM, the GI50 [2] is reported as > 100 µM (inactive) and the GI50 [3] is reported as > 100 µM (inactive). For the same compound, the GI50 [4] was > 100 µM (inactive), the GI50 [5] was > 100 µM (inactive) and the GI50 [6] was 32.3 µM (inactive). For the same compound, the GI50 [7] was > 100 µM (inactive), the GI50 [8] was > 100 µM (inactive) and the GI50 [9] was > 100 µM (inactive). The GI50 [10] was > 100 µM (inactive), the GI50 [11] was > 100 µM (inactive) and the GI50 [12] was > 100 µM (inactive). The GI50 [13] was > 100 µM (inactive), the GI50 [14] was 53.6 µM (inactive) and the GI50 [15] was > 100 µM (inactive). For the same compound, the GI50 [16] was > 100 µM (inactive), the GI50 [17] was > 100 µM (inactive) and the GI50 [18] was > 100 µM (inactive). For the same compound, the GI50 [19] was > 100 µM (inactive), the GI50 [20] was > 100 µM (inactive) and the GI50 [21] was > 100 µM (inactive). For the same compound, the GI50 [22] was > 100 µM (inactive), the GI50 [23] was > 100 µM (inactive) and the GI50 [24] was > 100 µM (inactive). The GI50 [25] was > 100 µM (inactive), the GI50 [26] was > 100 µM (inactive) and the GI50 [27] was > 100 µM (inactive). For the same compound, the GI50 [28] was > 100 µM (inactive), the GI50 [29] was > 100 µM (inactive) and the GI50 [30] was > 100 µM (inactive). For the same compound, the GI50 [31] was > 100 µM (inactive), the GI50 [32] was > 100 µM (inactive) and the GI50 [33] was > 100 µM (inactive). The GI50 [34] was > 100 µM (inactive), the GI50 [35] was > 100 µM (inactive) and the GI50 [36] was > 100 µM (inactive). For the same compound, the GI50 [37] was > 100 µM (inactive), the GI50 [38] was > 100 µM (inactive) and the GI50 [39] was > 100 µM (inactive). The GI50 [40] was > 100 µM (inactive), the GI50 [41] was > 100 µM (inactive) and the GI50 [42] was > 100 µM (inactive). For the same compound, the GI50 [43] was > 100 µM (inactive), the GI50 [44] was > 100 µM (inactive) and the GI50 [45] was > 100 µM (inactive). For the same compound, the GI50 [46] was > 100 µM (inactive), the GI50 [47] was > 100 µM (inactive) and the GI50 [48] was > 100 µM (inactive). For the same compound, the GI50 [49] was > 100 µM (inactive), the GI50 [50] was > 100 µM (inactive) and the GI50 [51] was > 100 µM (inactive). For the same compound, the GI50 [52] was > 100 µM (inactive), the GI50 [53] was > 100 µM (inactive) and the GI50 [54] was > 100 µM (inactive). The GI50 [55] was > 100 µM (inactive) and the GI50 [56] was > 100 µM (inactive).

In the case of COC(=O)c1ccc(/C=N/c2cc(C)nn2-c2ccccc2)cc1, the GI50 [1] is reported as 13.7 µM, the GI50 [2] is reported as > 100 µM (inactive) and the GI50 [3] is reported as 6.04 µM (inactive). The GI50 [4] was 38.6 µM (inactive), the GI50 [5] was 15.1 µM (inactive) and the GI50 [6] was 21.1 µM (inactive). For the same compound, the GI50 [7] was 41 µM (inactive), the GI50 [8] was 18.5 µM (inactive) and the GI50 [9] was 49.3 µM (inactive). The GI50 [10] was 29.2 µM (inactive), the GI50 [12] was 4.5 µM (inactive) and the GI50 [13] was 22.2 µM (inactive). For the same compound, the GI50 [14] was 99.1 µM (inactive), the GI50 [15] was 73.8 µM (inactive) and the GI50 [16] was 91.2 µM (inactive). For the same compound, the GI50 [17] was 70.8 µM (inactive), the GI50 [18] was 67 µM (inactive) and the GI50 [19] was 13.5 µM (inactive). The GI50 [57] was 2.79 µM (inactive), the GI50 [20] was 20.1 µM (inactive) and the GI50 [21] was 29 µM (inactive). The GI50 [22] was > 100 µM (inactive), the GI50 [23] was 34.9 µM (inactive) and the GI50 [24] was 82.2 µM (inactive). For the same compound, the GI50 [25] was 2.12 µM (inactive), the GI50 [26] was 19.4 µM (inactive) and the GI50 [27] was 48.5 µM (inactive). The GI50 [28] was 8.65 µM (inactive), the GI50 [29] was 93.1 µM (inactive) and the GI50 [30] was 16.4 µM (inactive). The GI50 [31] was 76.6 µM (inactive), the GI50 [32] was 8.47 µM (inactive) and the GI50 [33] was 75.7 µM (inactive). The GI50 [34] was 24.2 µM (inactive), the GI50 [35] was 13.8 µM (inactive) and the GI50 [36] was > 100 µM (inactive). For the same compound, the GI50 [37] was 40.9 µM (inactive), the GI50 [38] was 20.6 µM (inactive) and the GI50 [39] was 10.6 µM (inactive). The GI50 [40] was > 100 µM (inactive), the GI50 [41] was 33.5 µM (inactive) and the GI50 [42] was 12 µM (inactive). The GI50 [43] was 35.9 µM (inactive), the GI50 [44] was 34.9 µM (inactive) and the GI50 [45] was 20.7 µM (inactive). For the same compound, the GI50 [58] was 89.5 µM (inactive), the GI50 [46] was 57.1 µM (inactive) and the GI50 [47] was 49 µM (inactive). The GI50 [48] was > 100 µM (inactive), the GI50 [49] was 65.8 µM (inactive) and the GI50 [50] was > 100 µM (inactive). The GI50 [51] was 34.4 µM (inactive), the GI50 [52] was 19.2 µM (inactive) and the GI50 [53] was 28.8 µM (inactive). For the same compound, the GI50 [54] was 35.8 µM (inactive), the GI50 [59] was 20.4 µM (inactive) and the GI50 [55] was 22.5 µM (inactive). For the same compound, the GI50 [56] was 48.3 µM (inactive).
